Source: patent US4582824A, “Method for inhibiting activities of platelet activating factor” (Takeda Chemical Industries, Ltd., priority 1983, dated 1986)

Test system: PAF-induced platelet aggregation (washed PRP)
Experiment: Activity to inhibit PAF in platelet aggregation (washed PRP)
Assay type: cell-based, rabbit
Conditions: Oryctolagus cuniculus, test compound 3×10^-5 M, PAF 3×10^-7 M, 37° C., read-out: Inhibition rate
Procedure: Using an injection syringe containing a 3.15% solution of citric acid (in a ratio of 1 part per 9 parts of blood) as an anticoagulant, the blood was directly collected from a male rabbit. Then, at room temperature, the blood was centrifuged at 1,000 r.p.m. for 10 minutes to harvest a platelet rich plasma (PRP). This PRP was further centrifuged at 1,400 r.p.m. for 15 minutes to give a platelet pellet. The pellet was suspended in Ca^++ -free Tyrode solution (containing 0.25% of gelatin) to give a washed PRP. This washed PRP (250 μl) was stirred at 37° C. for 2 minutes, then 25 μl of a 0.2 to 0.5 mM Ca^++ solution was added, and the mixture was further stirred for 30 seconds. Then, the test compound was added to the above platelet preparation to a level of 3×10^-5 M. After stirring the mixture for 2 minutes, 3×10^-7 M of PAF was added. The degree of platelet aggregation was determined with a platelet aggregometer (Rika Denki). The activity of the test compound was estimated from the inhibition rate as compared with the maximum optical transmission (maximum aggregation) of control PRP by PAF.

SMILES | inhibition at 30 µM [%]
CCCCCCCCCCCCCCCCCCNC(=O)OCC(COP(=O)([O-])OCC[n+]1ccccc1)OC (stereo not shown) [Production Example 1, 3-(N-Octadecylcarbamoyloxy)-2-methoxypropyl 2-pyridinioethyl phosphate] | 95
CCCCCCCCCCNC(=O)OCC(COP(=O)([O-])OCC[n+]1ccsc1)OC (stereo not shown) [Production Example 3, 3-(N-Decylcarbamoyloxy)-2-methoxypropyl 2-thiazolioethyl phosphate] | 12
CCCCCCCCCCCCCCCCCCNC(=O)OCC(COP(=O)([O-])OCC[n+]1csc(CCO)c1C)OC (stereo not shown) [Production Example 4, 3-(N-octadecylcarbamoyloxy)-2-methoxypropyl 2-(4-methyl-5-hydroxyethyl)thiazolioethyl phosphate] | 33
CCCCCCCCCCCCCCCCCCNC(=O)OCC(COP(=O)([O-])OCC[n+]1ccc2ccccc2c1)OC (stereo not shown) [Production Example 5, 3-(N-Octadecylcarbamoyloxy)-2-methoxypropyl 2-isoquinolinioethyl phosphate] | 37
CCCCCCCCCCCCCCCCCCNC(=O)OCC(COP(=O)([O-])OCC[n+]1ccsc1)OCc1ccccc1 (stereo not shown) [Production Example 6, 3-(N-Octadecylcarbamoyloxy)-2-benzyloxypropyl 2-thiazolioethyl phosphate] | 79
CCCCCCCCCCCCCCCCCCNC(=O)OCC(COP(=O)([O-])OCC[n+]1ccccc1)OCc1ccccc1 (stereo not shown) [Production Example 7, 3-(N-Octadecylcarbamoyloxy)-2-benzyloxypropyl 2-pyridinioethyl phosphate] | 19
CCCCCCCCCCCCCCCCCCCCCCNC(=O)OCC(COP(=O)([O-])OCC[n+]1ccsc1)OC (stereo not shown) [Production Example 8, 3-(N-Docosylcarbamoyloxy)-2-methoxypropyl 2-thiazolioethyl phosphate] | 24
CCCCCCCCCCCCCCCNC(=O)OCC(COP(=O)([O-])OCC[n+]1ccsc1)OC (stereo not shown) [Production Example 10, 2-Methoxy-3-pentadecylcarbamoyloxypropyl 2-thiazolioethyl phosphate] | 100
CCCCCCCCCCCCCCCCNC(=O)OCC(COP(=O)([O-])OCC[n+]1ccsc1)OC (stereo not shown) [Production Example 11, 2-Methoxy-3-hexadecylcarbamoyloxypropyl 2-thiazolioethyl phosphate] | 100
CCCCCCCCCCCCCCCCCNC(=O)OCC(COP(=O)([O-])OCC[n+]1ccsc1)OC (stereo not shown) [Production Example 12, 2-methoxy-3-heptadecylcarbamoyloxypropyl 2-thiazolioethyl phosphate] | 100
